Experiment [1] concerns the target T1, Human KOR (Homo sapiens, UniProt P41145).
T1 construct: expressed in transfected cells; host or cells: HEK-293T
The experiment is described as follows: cell-based.

A further experiment concerns the target T2, Human MOR (Homo sapiens, UniProt P35372).
T2 construct: expressed in transfected cells; host or cells: HEK-293T
Briefly: cell-based.

The target in the next experiment is T3, Human DOR (Homo sapiens, UniProt P41143).
T3 construct: expressed in transfected cells; host or cells: HEK-293T
T3 sequence (P41143 whole entry): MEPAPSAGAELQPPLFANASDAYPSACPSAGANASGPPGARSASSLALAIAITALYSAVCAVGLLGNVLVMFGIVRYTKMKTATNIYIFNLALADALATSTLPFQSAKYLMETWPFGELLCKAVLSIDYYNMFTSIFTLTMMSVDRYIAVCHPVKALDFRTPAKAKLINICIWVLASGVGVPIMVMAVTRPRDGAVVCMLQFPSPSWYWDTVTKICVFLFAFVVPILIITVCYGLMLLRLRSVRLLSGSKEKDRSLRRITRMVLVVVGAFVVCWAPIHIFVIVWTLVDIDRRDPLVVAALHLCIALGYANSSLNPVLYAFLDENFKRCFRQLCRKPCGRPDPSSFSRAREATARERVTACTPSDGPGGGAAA
The experiment is described as follows: cell-based.

Experiment [2] concerns the target T1, Human KOR. Briefly: BRET functional assay, inhibition of reference agonist U-50,488 (antagonist mode), human KOR. It counts as cell-based.

Entries after “also recorded” stand apart in the source; their conditions may differ. Bounds are passed on as bounds.

T2 sequence (P35372 whole entry): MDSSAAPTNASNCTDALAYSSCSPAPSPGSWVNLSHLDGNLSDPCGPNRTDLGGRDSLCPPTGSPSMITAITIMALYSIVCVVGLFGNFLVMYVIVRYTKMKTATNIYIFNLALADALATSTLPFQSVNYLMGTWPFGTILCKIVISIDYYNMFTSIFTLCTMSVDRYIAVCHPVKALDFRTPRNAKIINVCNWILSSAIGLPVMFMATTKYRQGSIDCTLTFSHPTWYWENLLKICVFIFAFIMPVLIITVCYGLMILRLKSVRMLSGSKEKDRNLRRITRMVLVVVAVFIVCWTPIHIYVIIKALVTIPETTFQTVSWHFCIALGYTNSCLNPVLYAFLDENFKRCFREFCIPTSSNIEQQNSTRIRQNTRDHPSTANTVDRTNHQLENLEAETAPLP
T1 sequence (P41145 whole entry): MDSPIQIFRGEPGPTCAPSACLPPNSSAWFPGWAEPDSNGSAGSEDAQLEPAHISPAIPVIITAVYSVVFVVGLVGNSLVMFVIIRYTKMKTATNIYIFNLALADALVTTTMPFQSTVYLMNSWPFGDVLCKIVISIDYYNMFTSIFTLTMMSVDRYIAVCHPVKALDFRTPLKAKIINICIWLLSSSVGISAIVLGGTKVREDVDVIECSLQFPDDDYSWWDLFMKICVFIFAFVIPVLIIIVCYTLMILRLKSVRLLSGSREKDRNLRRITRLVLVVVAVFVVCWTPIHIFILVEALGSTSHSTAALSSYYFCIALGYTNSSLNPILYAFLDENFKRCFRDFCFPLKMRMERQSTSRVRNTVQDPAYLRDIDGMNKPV

For `CCC1CC2CC3c4oc5ccc(O)cc5c4C[C@@H](CC)N(C2)C13` (stereo partly drawn) [α-endo-52g], on Human KOR [1], the “agonist activity at KOR (in words)” value is reported as “not active as agonist; also recorded: no agonist activity”. Besides, the EC50 on Human KOR [1] (EC50 at indicated opioid receptor, Human KOR) is more than 100 µM; on Human MOR (EC50 at indicated opioid receptor, Human MOR), more than 100 µM; at Human DOR (EC50 at indicated opioid receptor, Human DOR), more than 100 µM. Further, the “agonist activity at MOR (in words)” value at Human MOR was “not active as agonist”. The “agonist activity at DOR (in words)” value on Human DOR is listed as “not active as agonist”. For the same compound, at Human KOR [2], the IC50 is 8.2 ± 0.5 µM. Besides, the “antagonist activity at KOR (in words)” value on Human KOR [2] is given as “KOR antagonist”.

With `CC[C@@H]1Cc2c(oc3ccc(O)cc23)C2CC3CCC2N1C3` (stereo partly drawn) [α-endo-60f], the 50% effective concentration (EC50) is more than 10 µM on Human KOR [1] (EC50, Human KOR); more than 100 µM on Human MOR (EC50, Human MOR); more than 100 µM on Human DOR (EC50, Human DOR).

As to `CC[C@H]1Cc2c(oc3ccc(O)cc23)C2CC3CCC2N1C3` (stereo partly drawn) [α-exo-60f], the EC50 on Human KOR [1] (EC50, Human KOR) was less than 10 µM; at Human MOR (EC50, Human MOR) it was less than 10 µM; on Human DOR (EC50, Human DOR), less than 10 µM.

A word on the EC50: it is the concentration at which the effect is half-maximal. Lower therefore signals a more potent agent. Broadly, the IC50 is the concentration that inhibits the measured activity by half. Low readings indicate greater potency in that assay, high ones weaker potency in that assay.

The values above are taken from patent publication US11840541B2 (priority 2014, dated 2023).
